What was measured:
[1] = molecular target: Dual specificity testis-specific protein kinase 1 (Homo sapiens) (UniProt Q15569); settings: Compound concentration 1000.0 nM
[2] = molecular target: Fibroblast growth factor receptor 4 (Homo sapiens) (UniProt P22455); settings: Compound concentration 1000.0 nM
[3] = molecular target: Serine/threonine-protein kinase PAK 3 (Homo sapiens) (UniProt O75914); settings: Compound concentration 1000.0 nM
[4] = molecular target: cGMP-dependent protein kinase 1 (Homo sapiens) (UniProt Q13976); settings: Compound concentration 1000.0 nM
[5] = molecular target: Hormonally up-regulated neu tumor-associated kinase (Homo sapiens) (UniProt P57058); settings: Compound concentration 1000.0 nM
[6] = molecular target: Serine/threonine-protein kinase 17A (Homo sapiens) (UniProt Q9UEE5); settings: Compound concentration 1000.0 nM
[7] = molecular target: Cyclin-dependent kinase 4 (Homo sapiens) (UniProt P11802); settings: Compound concentration 1000.0 nM
[8] = molecular target: Serine/threonine-protein kinase MAK (Homo sapiens) (UniProt P20794); settings: Compound concentration 1000.0 nM
[9] = molecular target: Serine/threonine-protein kinase BRSK2 (Homo sapiens) (UniProt Q8IWQ3); settings: Compound concentration 1000.0 nM
[10] = molecular target: 1-phosphatidylinositol 3-phosphate 5-kinase (Homo sapiens) (UniProt Q9Y2I7); settings: Compound concentration 1000.0 nM
[11] = molecular target: Alpha-2B adrenergic receptor (Homo sapiens) (UniProt P18089); settings: Compound concentration 10.0 uM
[12] = molecular target: SRSF protein kinase 2 (Homo sapiens) (UniProt P78362); settings: Compound concentration 1000.0 nM
[13] = molecular target: cAMP-dependent protein kinase catalytic subunit PRKX (Homo sapiens) (UniProt P51817); settings: Compound concentration 1000.0 nM
[14] = molecular target: Serine/threonine-protein kinase 10 (Homo sapiens) (UniProt O94804); settings: Compound concentration 1000.0 nM
[15] = molecular target: Serine/threonine-protein kinase pim-2 (Homo sapiens) (UniProt Q9P1W9); settings: Compound concentration 1000.0 nM
[16] = molecular target: Wee1-like protein kinase (Homo sapiens) (UniProt P30291); settings: Compound concentration 1000.0 nM
[17] = molecular target: Serine/threonine-protein kinase MRCK alpha (Homo sapiens) (UniProt Q5VT25); settings: Compound concentration 1000.0 nM
[18] = molecular target: Cyclin-dependent kinase 15 (Homo sapiens) (UniProt Q96Q40); settings: Compound concentration 1000.0 nM
[19] = molecular target: Activin receptor type-2B (Homo sapiens) (UniProt Q13705); settings: Compound concentration 1000.0 nM
[20] = molecular target: Cyclin-dependent kinase 9 (Homo sapiens) (UniProt P50750); settings: Compound concentration 1000.0 nM
[21] = molecular target: Ephrin type-B receptor 4 (Homo sapiens) (UniProt P54760); settings: Compound concentration 1000.0 nM
[22] = molecular target: Macrophage colony-stimulating factor 1 receptor (Homo sapiens) (UniProt P07333); settings: Compound concentration 1000.0 nM
[23] = molecular target: Activin receptor type-1B (Homo sapiens) (UniProt P36896); settings: Compound concentration 1000.0 nM
[24] = molecular target: Inhibitor of nuclear factor kappa-B kinase subunit beta (Homo sapiens) (UniProt O14920); settings: Compound concentration 1000.0 nM
[25] = molecular target: Dual specificity mitogen-activated protein kinase kinase 1 (Homo sapiens) (UniProt Q02750); settings: Compound concentration 1000.0 nM
[26] = molecular target: Cyclin-dependent kinase 8 (Homo sapiens) (UniProt P49336); settings: Compound concentration 1000.0 nM
[27] = molecular target: Ephrin type-B receptor 1 (Homo sapiens) (UniProt P54762); settings: Compound concentration 1000.0 nM
[28] = molecular target: Serine/threonine-protein kinase TAO3 (Homo sapiens) (UniProt Q9H2K8); settings: Compound concentration 1000.0 nM
[29] = molecular target: BDNF/NT-3 growth factors receptor (Homo sapiens) (UniProt Q16620); settings: Compound concentration 1000.0 nM
[30] = molecular target: Death-associated protein kinase 3 (Homo sapiens) (UniProt O43293); settings: Compound concentration 1000.0 nM
[31] = system: Hepatocyte growth factor receptor (Homo sapiens), P08581 [Y1235D]; settings: Compound concentration 1000.0 nM
[32] = molecular target: Proto-oncogene tyrosine-protein kinase Src (Homo sapiens) (UniProt P12931); settings: Compound concentration 1000.0 nM
[33] = molecular target: Cyclin-dependent kinase 14 (Homo sapiens) (UniProt O94921); settings: Compound concentration 1000.0 nM
[34] = system: Tyrosine-protein kinase ABL1 (Homo sapiens), P00519 [Y253F]; settings: Compound concentration 1000.0 nM
[35] = molecular target: Receptor-type tyrosine-protein kinase FLT3 (Homo sapiens) (UniProt P36888); settings: Compound concentration 1000.0 nM
[36] = molecular target: 5-hydroxytryptamine receptor 2C (Homo sapiens) (UniProt P28335); settings: Compound concentration 10.0 uM
[37] = molecular target: Homeodomain-interacting protein kinase 3 (Homo sapiens) (UniProt Q9H422); settings: Compound concentration 1000.0 nM
[38] = molecular target: Serine/threonine-protein kinase PLK3 (Homo sapiens) (UniProt Q9H4B4); settings: Compound concentration 1000.0 nM
[39] = molecular target: Serine/threonine-protein kinase pim-1 (Homo sapiens) (UniProt P11309); settings: Compound concentration 1000.0 nM
[40] = molecular target: D(1B) dopamine receptor (Homo sapiens) (UniProt P21918); settings: Compound concentration 10.0 uM
[41] = molecular target: Serine/threonine-protein kinase pim-3 (Homo sapiens) (UniProt Q86V86); settings: Compound concentration 1000.0 nM
[42] = molecular target: Non-receptor tyrosine-protein kinase TYK2 (Homo sapiens) (UniProt P29597); settings: Compound concentration 1000.0 nM
[43] = system: Receptor-type tyrosine-protein kinase FLT3 (Homo sapiens), P36888 [D835H]; settings: Compound concentration 1000.0 nM
[44] = molecular target: Dual specificity mitogen-activated protein kinase kinase 7 (Homo sapiens) (UniProt O14733); settings: Compound concentration 1000.0 nM
[45] = molecular target: Serine/threonine-protein kinase 36 (Homo sapiens) (UniProt Q9NRP7); settings: Compound concentration 1000.0 nM
[46] = molecular target: Rhodopsin kinase GRK7 (Homo sapiens) (UniProt Q8WTQ7); settings: Compound concentration 1000.0 nM

Sequence of Death-associated protein kinase 3 (Homo sapiens) (O43293 whole entry, looked up): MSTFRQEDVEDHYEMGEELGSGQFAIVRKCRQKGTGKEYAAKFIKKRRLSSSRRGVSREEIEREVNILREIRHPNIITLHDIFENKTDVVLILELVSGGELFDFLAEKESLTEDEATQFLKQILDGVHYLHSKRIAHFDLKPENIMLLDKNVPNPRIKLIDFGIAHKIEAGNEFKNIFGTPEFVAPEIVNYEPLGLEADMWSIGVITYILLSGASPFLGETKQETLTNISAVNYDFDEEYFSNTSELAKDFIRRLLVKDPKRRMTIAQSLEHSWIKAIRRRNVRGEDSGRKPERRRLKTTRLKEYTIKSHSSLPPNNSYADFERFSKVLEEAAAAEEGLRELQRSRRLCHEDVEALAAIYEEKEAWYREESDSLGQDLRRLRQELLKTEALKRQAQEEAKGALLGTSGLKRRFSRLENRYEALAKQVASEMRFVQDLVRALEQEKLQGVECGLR
Sequence of Dual specificity testis-specific protein kinase 1 (Homo sapiens) (Q15569 whole entry, looked up): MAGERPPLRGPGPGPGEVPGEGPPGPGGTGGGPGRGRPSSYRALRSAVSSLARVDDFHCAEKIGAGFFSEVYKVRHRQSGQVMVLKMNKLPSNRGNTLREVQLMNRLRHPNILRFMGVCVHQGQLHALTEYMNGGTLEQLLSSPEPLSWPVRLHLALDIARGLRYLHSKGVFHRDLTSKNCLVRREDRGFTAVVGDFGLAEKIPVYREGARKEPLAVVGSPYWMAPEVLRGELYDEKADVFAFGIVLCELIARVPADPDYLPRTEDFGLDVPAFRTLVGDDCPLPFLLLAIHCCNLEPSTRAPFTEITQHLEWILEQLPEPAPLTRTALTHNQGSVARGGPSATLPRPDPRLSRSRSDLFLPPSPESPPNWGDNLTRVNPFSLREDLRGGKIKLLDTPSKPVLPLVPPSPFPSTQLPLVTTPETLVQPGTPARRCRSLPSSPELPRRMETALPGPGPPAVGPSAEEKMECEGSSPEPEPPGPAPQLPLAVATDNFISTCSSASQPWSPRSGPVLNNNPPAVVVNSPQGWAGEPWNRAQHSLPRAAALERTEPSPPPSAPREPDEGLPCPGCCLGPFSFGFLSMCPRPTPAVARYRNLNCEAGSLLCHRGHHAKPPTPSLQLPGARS
Sequence of D(1B) dopamine receptor (Homo sapiens) (P21918 whole entry): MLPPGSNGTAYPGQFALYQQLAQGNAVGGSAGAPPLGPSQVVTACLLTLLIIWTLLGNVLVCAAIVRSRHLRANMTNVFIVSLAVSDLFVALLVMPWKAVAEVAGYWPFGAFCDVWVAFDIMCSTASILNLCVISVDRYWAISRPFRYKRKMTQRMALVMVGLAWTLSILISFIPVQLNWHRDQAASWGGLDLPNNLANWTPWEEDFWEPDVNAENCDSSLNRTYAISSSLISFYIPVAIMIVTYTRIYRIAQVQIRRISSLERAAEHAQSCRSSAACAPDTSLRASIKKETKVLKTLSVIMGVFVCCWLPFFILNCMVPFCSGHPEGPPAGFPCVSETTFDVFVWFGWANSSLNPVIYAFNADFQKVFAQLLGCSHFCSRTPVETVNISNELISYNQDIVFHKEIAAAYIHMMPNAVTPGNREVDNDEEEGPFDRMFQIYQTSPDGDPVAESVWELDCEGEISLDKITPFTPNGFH
Sequence of cGMP-dependent protein kinase 1 (Homo sapiens) (Q13976 whole entry): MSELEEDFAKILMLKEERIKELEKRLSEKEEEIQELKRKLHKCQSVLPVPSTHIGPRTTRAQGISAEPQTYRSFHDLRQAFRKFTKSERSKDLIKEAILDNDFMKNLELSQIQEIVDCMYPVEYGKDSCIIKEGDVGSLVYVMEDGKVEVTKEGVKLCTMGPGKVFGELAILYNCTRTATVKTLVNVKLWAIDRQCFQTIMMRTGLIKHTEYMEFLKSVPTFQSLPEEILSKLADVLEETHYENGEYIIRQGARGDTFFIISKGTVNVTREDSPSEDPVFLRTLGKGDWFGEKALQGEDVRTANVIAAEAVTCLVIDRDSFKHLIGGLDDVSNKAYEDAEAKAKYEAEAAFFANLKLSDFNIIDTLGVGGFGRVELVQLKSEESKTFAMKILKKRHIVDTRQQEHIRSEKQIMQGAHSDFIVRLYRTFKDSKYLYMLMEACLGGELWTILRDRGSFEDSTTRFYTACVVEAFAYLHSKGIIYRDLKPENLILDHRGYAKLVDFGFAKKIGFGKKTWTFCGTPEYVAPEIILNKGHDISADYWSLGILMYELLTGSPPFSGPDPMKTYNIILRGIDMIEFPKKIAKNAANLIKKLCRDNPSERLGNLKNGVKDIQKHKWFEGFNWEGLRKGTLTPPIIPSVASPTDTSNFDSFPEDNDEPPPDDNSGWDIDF
Sequence of Cyclin-dependent kinase 14 (Homo sapiens) (O94921 whole entry): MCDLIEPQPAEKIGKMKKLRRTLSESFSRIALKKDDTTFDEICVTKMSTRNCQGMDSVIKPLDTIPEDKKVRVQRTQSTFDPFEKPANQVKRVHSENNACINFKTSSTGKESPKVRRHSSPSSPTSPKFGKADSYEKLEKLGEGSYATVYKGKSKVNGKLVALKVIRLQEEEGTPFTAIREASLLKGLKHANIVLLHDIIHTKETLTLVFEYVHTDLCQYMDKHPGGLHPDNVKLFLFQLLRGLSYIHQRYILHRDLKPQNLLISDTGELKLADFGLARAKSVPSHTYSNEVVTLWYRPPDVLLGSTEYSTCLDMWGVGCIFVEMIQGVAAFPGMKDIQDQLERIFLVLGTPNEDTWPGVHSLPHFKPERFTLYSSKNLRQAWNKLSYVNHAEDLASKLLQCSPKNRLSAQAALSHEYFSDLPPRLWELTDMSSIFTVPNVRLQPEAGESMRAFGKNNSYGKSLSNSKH
Sequence of 5-hydroxytryptamine receptor 2C (Homo sapiens) (P28335 whole entry): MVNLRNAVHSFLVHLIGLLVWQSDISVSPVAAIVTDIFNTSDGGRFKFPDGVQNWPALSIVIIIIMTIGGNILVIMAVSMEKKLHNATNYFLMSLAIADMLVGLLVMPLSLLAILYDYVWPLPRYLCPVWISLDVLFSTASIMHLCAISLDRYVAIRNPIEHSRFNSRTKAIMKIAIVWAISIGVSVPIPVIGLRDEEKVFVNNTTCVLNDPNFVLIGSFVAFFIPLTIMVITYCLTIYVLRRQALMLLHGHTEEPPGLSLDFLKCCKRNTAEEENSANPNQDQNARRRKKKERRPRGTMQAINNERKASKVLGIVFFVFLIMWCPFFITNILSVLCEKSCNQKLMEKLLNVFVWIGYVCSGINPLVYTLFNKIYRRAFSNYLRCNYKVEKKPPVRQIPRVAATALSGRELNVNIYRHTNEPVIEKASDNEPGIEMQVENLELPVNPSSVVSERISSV
Sequence of Serine/threonine-protein kinase TAO3 (Homo sapiens) (Q9H2K8 whole entry): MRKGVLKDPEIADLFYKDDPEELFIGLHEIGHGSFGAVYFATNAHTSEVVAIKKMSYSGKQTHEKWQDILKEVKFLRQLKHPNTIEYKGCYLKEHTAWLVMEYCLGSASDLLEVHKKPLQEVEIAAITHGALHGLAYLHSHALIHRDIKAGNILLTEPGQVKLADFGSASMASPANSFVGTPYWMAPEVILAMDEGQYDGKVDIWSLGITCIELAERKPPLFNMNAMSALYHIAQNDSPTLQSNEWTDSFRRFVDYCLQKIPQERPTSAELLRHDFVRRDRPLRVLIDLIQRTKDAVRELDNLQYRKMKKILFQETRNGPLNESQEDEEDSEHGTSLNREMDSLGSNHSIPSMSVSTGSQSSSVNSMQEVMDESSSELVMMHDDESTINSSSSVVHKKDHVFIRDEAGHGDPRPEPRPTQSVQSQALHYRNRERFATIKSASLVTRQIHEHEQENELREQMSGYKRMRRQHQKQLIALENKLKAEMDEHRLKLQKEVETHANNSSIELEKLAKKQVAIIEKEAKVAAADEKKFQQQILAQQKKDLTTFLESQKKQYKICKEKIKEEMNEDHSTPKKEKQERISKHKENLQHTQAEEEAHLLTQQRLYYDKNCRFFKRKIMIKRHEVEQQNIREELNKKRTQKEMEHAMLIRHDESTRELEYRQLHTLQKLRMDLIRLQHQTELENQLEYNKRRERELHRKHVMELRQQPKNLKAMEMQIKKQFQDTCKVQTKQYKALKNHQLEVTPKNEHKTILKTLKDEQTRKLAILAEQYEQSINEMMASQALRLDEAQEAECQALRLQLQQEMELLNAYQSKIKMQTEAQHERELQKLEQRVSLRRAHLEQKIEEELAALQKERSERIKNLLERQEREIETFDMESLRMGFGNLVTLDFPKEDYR
Sequence of Activin receptor type-1B (Homo sapiens) (P36896 whole entry): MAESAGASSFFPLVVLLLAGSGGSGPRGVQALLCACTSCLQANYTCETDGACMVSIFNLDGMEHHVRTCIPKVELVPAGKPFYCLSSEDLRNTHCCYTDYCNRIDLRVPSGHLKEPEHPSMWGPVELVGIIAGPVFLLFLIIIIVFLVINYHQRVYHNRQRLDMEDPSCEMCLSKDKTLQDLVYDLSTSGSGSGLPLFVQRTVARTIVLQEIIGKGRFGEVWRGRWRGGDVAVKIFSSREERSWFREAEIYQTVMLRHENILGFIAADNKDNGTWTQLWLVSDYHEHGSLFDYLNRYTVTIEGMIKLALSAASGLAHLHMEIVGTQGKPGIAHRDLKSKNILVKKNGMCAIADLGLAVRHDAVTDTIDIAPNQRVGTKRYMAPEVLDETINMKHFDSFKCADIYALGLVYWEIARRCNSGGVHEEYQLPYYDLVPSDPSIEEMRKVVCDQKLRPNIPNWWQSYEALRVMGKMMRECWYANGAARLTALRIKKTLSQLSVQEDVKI
Sequence of Cyclin-dependent kinase 15 (Homo sapiens) (Q96Q40 whole entry): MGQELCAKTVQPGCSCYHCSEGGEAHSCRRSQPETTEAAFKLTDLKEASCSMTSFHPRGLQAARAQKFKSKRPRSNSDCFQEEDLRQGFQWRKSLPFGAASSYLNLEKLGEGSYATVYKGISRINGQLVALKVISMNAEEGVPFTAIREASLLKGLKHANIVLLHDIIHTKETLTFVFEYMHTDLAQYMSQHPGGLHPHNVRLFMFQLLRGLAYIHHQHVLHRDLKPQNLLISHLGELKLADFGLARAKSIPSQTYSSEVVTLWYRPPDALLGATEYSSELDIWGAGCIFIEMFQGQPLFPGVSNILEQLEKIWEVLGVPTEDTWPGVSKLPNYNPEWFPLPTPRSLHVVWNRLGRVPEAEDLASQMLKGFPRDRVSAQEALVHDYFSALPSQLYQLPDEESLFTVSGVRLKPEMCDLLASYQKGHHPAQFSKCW

COc1cccc(CNC(=O)c2nc3scc(COCc4ccc(C(=O)O)cc4)c3c(=O)[nH]2)c1 [T-26c]
inactive: residual activity [1] 82.8% | residual activity [2] 91.4% | residual activity [3] 51.9% | residual activity [4] 100% | residual activity [5] 100% | residual activity [6] 73.1% | residual activity [7] 61.7% | residual activity [8] 100% | residual activity [9] 77.3% | residual activity [10] 100% | inhibition [11] 11% | residual activity [12] 100% | residual activity [13] 100% | residual activity [14] 67.8% | residual activity [15] 100% | residual activity [16] 95.7% | residual activity [17] 100% | residual activity [18] 97.6% | residual activity [19] 100% | residual activity [20] 78.6% | residual activity [21] 89.4% | residual activity [22] 100% | residual activity [23] 89.4% | residual activity [24] 73.2% | residual activity [25] 73.5% | residual activity [26] 73.4% | residual activity [27] 90.9% | residual activity [28] 72.3% | residual activity [29] 67.1% | residual activity [30] 92.2% | residual activity [31] 100% | residual activity [32] 100% | residual activity [33] 100% | residual activity [34] 84.6% | residual activity [35] 62.5% | inhibition [36] 12.5% | residual activity [37] 73.7% | residual activity [38] 65.3% | residual activity [39] 100% | inhibition [40] 11.9% | residual activity [41] 100% | residual activity [42] 79.8% | residual activity [43] 92.9% | residual activity [44] 81.2% | residual activity [45] 100% | residual activity [46] 67%

Reference: ChEMBL document CHEMBL4507300 (2021)
